ChEMBL document CHEMBL1150721, “Hepatoprotective activity of polyphenolic compounds from Cynara scolymus against CCl4 toxicity in isolated rat hepatocytes” (1987)

Tests used:
[1] = tested on: Hepatocyte; test: Hepatoprotective activity against carbon tetrachloride-induced hepatotoxicity in fasted Sprague-Dawley rat hepatocytes assessed as serum glutamic pyruvate transaminase release at 3 mg/ml administered before 10 mins of carbon tetrachloride challenge measured after 30 mins; format: functional
[2] = tested on: Hepatocyte; test: Hepatoprotective activity against carbon tetrachloride-induced hepatotoxicity in fasted Sprague-Dawley rat hepatocytes assessed as serum glutamic oxaloacetic transaminase release at 0.1 mg/ml administered before 10 mins of carbon tetrachloride challenge measured after 30 mins; format: functional
[3] = tested on: Hepatocyte; test: Hepatoprotective activity against carbon tetrachloride-induced hepatotoxicity in fasted Sprague-Dawley rat hepatocytes assessed as serum glutamate pyruvate transaminase release at 1 mg/ml administered before 10 mins of carbon tetrachloride challenge measured after 30 mins; format: functional
[4] = tested on: Hepatocyte; test: Hepatoprotective activity against carbon tetrachloride-induced hepatotoxicity in fasted Sprague-Dawley rat hepatocytes assessed as serum glutamic oxaloacetic transaminase release at 1 mg/ml administered before 10 mins of carbon tetrachloride challenge measured after 30 mins; format: functional
[5] = tested on: Hepatocyte; test: Hepatoprotective activity against carbon tetrachloride-induced hepatotoxicity in fasted Sprague-Dawley rat hepatocytes assessed as serum glutamic pyruvate transaminase release at 0.1 mg/ml administered before 10 mins of carbon tetrachloride challenge measured after 30 mins; format: functional
[6] = tested on: Hepatocyte; test: Hepatoprotective activity against carbon tetrachloride-induced hepatotoxicity in fasted Sprague-Dawley rat hepatocytes assessed as serum glutamic oxaloacetic transaminase release at 0.01 mg/ml administered before 10 mins of carbon tetrachloride challenge measured after 30 mins; format: functional
[7] = tested on: Hepatocyte; test: Hepatoprotective activity against carbon tetrachloride-induced hepatotoxicity in fasted Sprague-Dawley rat hepatocytes assessed as serum glutamic pyruvate transaminase release at 0.01 mg/ml administered before 10 mins of carbon tetrachloride challenge measured after 30 mins; format: functional
[8] = tested on: Hepatocyte; test: Hepatoprotective activity against carbon tetrachloride-induced hepatotoxicity in fasted Sprague-Dawley rat hepatocytes assessed as serum glutamic oxaloacetic transaminase release at 3 mg/ml administered before 10 mins of carbon tetrachloride challenge measured after 30 mins; format: functional
[9] = target: T1, Alanine aminotransferase 1 (Homo sapiens) (UniProt P24298); test: Effect on glutamic pyruvate transaminase activity at 0.1 mg/ml
T1 sequence (whole entry): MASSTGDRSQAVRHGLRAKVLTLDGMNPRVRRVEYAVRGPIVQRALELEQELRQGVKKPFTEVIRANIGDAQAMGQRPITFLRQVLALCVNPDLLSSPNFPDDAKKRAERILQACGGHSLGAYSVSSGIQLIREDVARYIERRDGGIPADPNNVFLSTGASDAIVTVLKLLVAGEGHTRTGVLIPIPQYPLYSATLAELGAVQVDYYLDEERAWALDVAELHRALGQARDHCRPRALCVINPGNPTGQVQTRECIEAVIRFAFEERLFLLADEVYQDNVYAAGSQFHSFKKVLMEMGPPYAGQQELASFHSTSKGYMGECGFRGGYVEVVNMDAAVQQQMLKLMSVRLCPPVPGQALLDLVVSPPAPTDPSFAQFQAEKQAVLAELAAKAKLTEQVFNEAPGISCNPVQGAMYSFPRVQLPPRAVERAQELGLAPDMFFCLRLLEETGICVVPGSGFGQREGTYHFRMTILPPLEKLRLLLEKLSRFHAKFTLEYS

[10] = Effect on glutamate oxaloacetic transaminase activity at 0.1 mg/ml
[11] = target: T1, Alanine aminotransferase 1 (Homo sapiens); test: Effect on glutamic pyruvate transaminase activity at 1 mg/ml
[12] = Effect on glutamate oxaloacetic transaminase activity at 1 mg/ml
[13] = target: T1, Alanine aminotransferase 1 (Homo sapiens); test: Effect on glutamic pyruvate transaminase activity at 3 mg/ml
[14] = Effect on glutamate oxaloacetic transaminase activity at 3 mg/ml

SMILES	Activity [1]	Activity [2]	Activity [3]	Activity [4]	Activity [5]	Activity [6]	Activity [7]	Activity [8]	Activity [9]	Activity [10]	Activity [11]	Activity [12]	Activity [13]	Activity [14]
O=C(O)[C@]1(O)C[C@@H](O)[C@@H](O)[C@H](O)C1 [QUINIC ACID]	17%	21.9%	17.4%	21.2%	18.1%	18.4%	15.5%	21.2%	–	–	–	–	–	–
Oc1cc(O)c2c(c1)O[C@H](c1ccc(O)c(O)c1)[C@@H](O)C2 [CIANIDANOL]	20.1%	18.3%	17.3%	21%	14.3%	16.8%	13.5%	22.4%	103 U/L	127 U/L	–	–	–	–
O=C(O)/C=C/c1ccc(O)c(O)c1 [CAFFEIC ACID]	16.7%	19.9%	13.4%	18.6%	17.5%	21%	19%	22.1%	–	–	97 U/L	123 U/L	–	–
O=c1cc(-c2ccc(O)c(O)c2)oc2cc(O[C@@H]3O[C@H](CO)[C@@H](O)[C@H](O)[C@H]3O)cc(O)c12 [GALUTEOLIN]	20.9%	20.4%	15.9%	21.1%	14.9%	21.9%	15.9%	22.8%	–	–	111 U/L	139 U/L	–	–
O=C(/C=C/c1ccc(O)c(O)c1)O[C@@H]1C[C@](O)(C(=O)O)C[C@@H](O)[C@H]1O [CHLOROGENIC ACID]	15.9%	19.4%	17.7%	20.6%	15.3%	19.5%	16.7%	20.6%	–	–	–	–	–	–
O=C(/C=C/c1ccc(O)c(O)c1)O[C@@H]1C[C@@](OC(=O)/C=C/c2ccc(O)c(O)c2)(C(=O)O)C[C@@H](O)[C@@H]1O [CYNARIN]	13.3%	17.9%	13.9%	17.6%	16.8%	17.6%	16.3%	16.5%	–	–	103 U/L	126 U/L	110 U/L	123 U/L
